Measured values taken from US5461046A, “1-,2-,3-,4-,5-,6-,7-,8-, and/or 9-substituted dibenzoxazepine compounds, pharmaceutical compositions and methods for treating pain” (G. D. Searle & Co., priority 1993, dated 1995).
Like-named read-outs stand apart in the source and are kept apart here.

Tests used:
[1] = target: T1, prostaglandin E2-induced contractions of segments of guinea pig ileum (Cavia porcellus, UniProt A0A286XHJ6); assay: Prostaglandin (PGE) Antagonism Assay in guinea pig ileum; conditions: initial concentration 3 micromolar; estimated pA2 (slope -1.0 assumed) or Schild plot pA2
T1 construct: The ilea were then quickly removed from the guinea pigs; from tissue; host or cells: ileum segments of male albino guinea pigs
T1 sequence (A0A286XHJ6 1-405): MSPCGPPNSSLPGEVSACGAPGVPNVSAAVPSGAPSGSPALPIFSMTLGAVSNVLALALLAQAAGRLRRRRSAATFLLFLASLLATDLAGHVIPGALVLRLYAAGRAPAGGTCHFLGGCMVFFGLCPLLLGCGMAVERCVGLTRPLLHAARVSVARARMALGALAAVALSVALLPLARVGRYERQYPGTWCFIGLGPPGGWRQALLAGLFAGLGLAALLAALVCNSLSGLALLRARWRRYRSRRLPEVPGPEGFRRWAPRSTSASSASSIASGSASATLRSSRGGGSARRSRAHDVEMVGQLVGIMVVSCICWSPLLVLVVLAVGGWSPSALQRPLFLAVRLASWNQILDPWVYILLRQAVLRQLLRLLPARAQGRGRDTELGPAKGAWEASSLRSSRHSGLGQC
Method: In order to determine the effectiveness of several of the compounds of the present invention ("test compounds") as prostaglandin E2 antagonists,a prostaglandin antagonism assay was conducted, as described below, to determine the ability of these compounds to inhibit prostaglandin E2 -induced contractions of segments of guinea pig ileum.
Male albino guinea pigs weighing 200 to 500 grams were sacrificed by cervical dislocation. The ilea were then quickly removed from the guinea pigs and placed in a modified Tyrode solution, a solution which is known to those skilled in the art, containing one-half of the usual amount of magnesium ions.
Segments of ileum about 2 cm long were then cut and mounted in a 10-mL tissue bath containing the modified Tyrode solution. The solution was maintained at 37° C. and aerated with a gaseous mixture of 95% oxygen and 5% carbon dioxide. Data for a control prostaglandin E2 dose response curve plotting concentration of prostaglandin E2 versus the intensity of contractions, detected isotonically, was then obtained by experimentally adjusting the dose of the prostaglandin E2 being injected into the tissue bath, in a manner known by those of skill in the art.
Solutions or suspensions containing an initial concentration (3 micromolar) of a test compound in modified Tyrode solution ("test solutions/suspensions") were then separately substituted for the control bath solution. Each test solution/suspension was then kept in constant contact with the ileum tissue, except for brief periods to drain the bath in preparation for rinsing with fresh test solution/suspension. A second prostaglandin E2 dose response curve was then generated for prostaglandin E2 in the presence of a test compound.
A dose ratio of EC50 doses was then calculated from the results of each test in a manner known by those of skill in the art. A test compound was determined to be "active" if the initial concentration used yielded at least a two-fold shift (dose ratio greater than or equal to 2) in the dose response curve for prostaglandin E2.
The compounds of the present invention which were tested in this assay, and for which results are presented in Table 2, correspond to the particular examples specified in Table 2.

[2] = tested on: phenylbenzoquinone (PBQ)-induced writhing in mice; assay: Writhing Assay (phenylbenzoquinone-induced writhing, analgesia); type: in vivo, Charles River male albino mice; conditions: for responders at 30 mg/kg: Mus musculus, 25 min, 25 min before PBQ i.p., number of mice out of ten with analgesia
Source text: The Writhing Assay is one of the most widely-used experimental procedures for measuring the analgesic activity of different narcotic and nonnarcotic analgesic agents, and involves the continuous, chemically-induced pain of visceral origin to an animal, such as a mouse or rat. [Gyires et al., Arch. int. Pharmacodyn, 267, 131-140 (1984); C. Vander Wende et al., Fed. Proc., 15, 494 (1956); Koster et al., Fed. Proc., 18, 412 (1959); and Witken et al., J. Pharmacol. exp. Ther., 133, 400-408 (1961).] Chemicals which may be used to induce this pain include phenylbenzoquinone (PBQ) and acetic acid. As a result of the chemical irritation to the animal, a characteristic stretching and writhing of the animal (dorsiflexion of the animal's back, extension of its hindlimbs and the strong contraction of its abdominal musculature) will generally occur. […] Drugs which reduce the number of writhes of the animal appear to restore the normal nociceptive threshold of the animal.
Charles River male albino mice, weighing 20 to 30 grams were used in this assay.
Twenty-five minutes after subcutaneous or intragastric administration to ten mice of 30 mg per kilogram of body weight of a compound of the present invention ("test compound"), […] per 10 g of body weight of a 0.025% w/v solution of PBQ was injected intraperitoneally into each mouse. Ten mice which were given saline in place of a test compound of the invention were used as a control group.
Five minutes later, each mouse was individually placed into a glass beaker for observation, and the number of writhes occurring during the following ten-minute period was counted.
A test compound was considered to have produced analgesia in a mouse if, in accordance with the conditions set forth above, and under the test criteria employed for this assay, after the administration of 30 mg per kilogram of body weight of a compound of the present invention to the mouse, the number of writhes elicited by a mouse injected with PBQ was equal to, or less than, one-half the median number of writhes recorded for the saline-treated control group of mice that day, as described by Taber in "Predictive Value of Analgesic Assays in Mice and Rats," Advances in Biochemical Psychopharmacology, 8, 191 (1974).
The results for the particular compounds of the present invention analyzed in this assay, and discussed in the examples identified below which correspond thereto, are presented in Table 2 hereinbelow under the heading "WRITHING ASSAY." The fractions indicate the number of mice out of ten in which a test compound produced analgesia.

[3] = tested on: stimulant actions of prostaglandins on isolated smooth muscle preparations; conditions: cited from earlier work
[4] = ip, 30 mg per kg i.g., read-out: WRITHING ASSAY Number Out of Ten I.G. (converted)
[5] = sc, 30 mg per kg s.c., read-out: WRITHING ASSAY Number Out of Ten S.C.

CCS(=O)(=O)CCC(=O)NNC(=O)N1Cc2ccccc2Oc2ccc(C(=O)OC)cc21 [Example 1, Dibenz [b,f][1,4]oxazepine-8,10(11H)dicarboxylic acid, 8-methyl ester, 10-[2-[3-(ethylsulfonyl)-1-oxopropyl]hydrazide]]
Kb [1]: 2.88 µM
responders at 30 mg/kg [2, 4]: 30%
responders at 30 mg/kg [2, 5]: 50%

CCS(=O)(=O)CCC(=O)NNC(=O)N1Cc2ccccc2Oc2cc(C(=O)OC)ccc21 [Example 2, Dibenz[b,f][1,4]oxazepine-7,10(11H) dicarboxylic acid, 7-methyl ester, 10-[2-[3-(ethylsulfonyl)-1-oxopropyl]hydrazide]]
Kb [1]: 2 µM
responders at 30 mg/kg [2, 4]: 33.3%
responders at 30 mg/kg [2, 5]: 30%

CCS(=O)(=O)CCC(=O)NNC(=O)N1Cc2ccccc2Oc2ccc(C(=O)OC(C)(C)C)cc21 [Example 3, Dibenz[b,f][1,4]oxazepine-8,10(11H)-dicarboxylic acid, 8-(1,1-dimethylethyl) ester, 10-[2-[3-(ethylsulfonyl)-1-oxopropyl]hydrazide]]
Kb [1]: 1.78 µM
responders at 30 mg/kg [2, 4]: 40%
responders at 30 mg/kg [2, 5]: 30%

CCS(=O)(=O)CCC(=O)NNC(=O)N1Cc2ccccc2Oc2cc(C(=O)OC(C)(C)C)ccc21 [Example 5, Dibenz[b,f][1,4]oxazepine-7,10(11H)-dicarboxylic acid, 7-(1,1-dimethylethyl) ester, 10-[2-[3-(ethylsulfonyl)-1-oxopropyl]hydrazide]]
Kb [1]: 1.17 µM
responders at 30 mg/kg [2, 4]: 20%
responders at 30 mg/kg [2, 5]: 30%

CCS(=O)(=O)CCC(=O)NNC(=O)N1Cc2ccccc2Oc2cc(C(=O)O)ccc21 [Example 6, Dibenz[b,f][1,4]oxazepine-7,10(11H)-dicarboxylic acid, 10-[2-[3-(ethylsulfonyl)-1-oxopropyl]hydrazide]]
Kb [1]: 2.63 µM
responders at 30 mg/kg [2, 4]: 40%
responders at 30 mg/kg [2, 5]: 20%

CCS(=O)(=O)CCC(=O)NNC(=O)N1Cc2cc(Cl)ccc2Oc2ccc(Cl)cc21 [Example 9, 2,8-dichlorodibenz[b,f][1,4]oxazepine-10(11H)-carboxylic acid, 2-[3-(ethylsulfonyl)-1-oxopropyl]hydrazide]
Kb [1]: 1.58 µM
responders at 30 mg/kg [2, 4]: 40%
responders at 30 mg/kg [2, 5]: 30%

CCS(=O)(=O)CCC(=O)NNC(=O)N1Cc2ccccc2Oc2ccc([N+](=O)[O-])cc21 [Example 10, 8-nitrodibenz[b,f][1,4]oxazepine-10(11H)-carboxylic acid, 2-[3-(ethylsulfonyl)-1-oxopropyl]hydrazide]
Kb [1]: 2.88 µM
responders at 30 mg/kg [2, 4]: 40%
responders at 30 mg/kg [2, 5]: 40%

CCS(=O)(=O)CCC(=O)NNC(=O)N1Cc2ccccc2Oc2c(Cl)cccc21 [Example 12, 6-chlorodibenz[b,f][1,4]oxazepine-10(11H)-carboxylic acid, 2-[3-(ethylsulfonyl)-1-oxopropyl]hydrazide]
Kb [1]: 1.15 µM
responders at 30 mg/kg [2, 4]: 30%
responders at 30 mg/kg [2, 5]: 40%

CCS(=O)(=O)CCC(=O)NNC(=O)N1Cc2ccccc2Oc2ccc(N)cc21 [Example 13, 8-aminodibenz[b,f][1,4]oxazepine-10(11H)-carboxylic acid, 2-[3-(ethylsulfonyl)-1-oxopropyl]hydrazide]
Kb [1]: 2.82 µM
responders at 30 mg/kg [2, 4]: 40%
responders at 30 mg/kg [2, 5]: 40%

CCN(CC)c1ccc2c(c1)N(C(=O)NNC(=O)CCS(=O)(=O)CC)Cc1ccccc1O2 [Example 15, 8-(diethylamino)dibenz[b,f][1,4]oxazepine-10(11H)-carboxylic acid, 2-[3-(ethylsulfonyl)-1-oxopropyl]hydrazide]
Kb [1]: 0.708 µM
responders at 30 mg/kg [2, 4]: 30%
responders at 30 mg/kg [2, 5]: 10%

CCS(=O)(=O)CCC(=O)NNC(=O)N1Cc2ccccc2Oc2ccc(OC)cc21 [Example 16, 8-methoxydibenz[b,f][1,4]oxazepine-10(11H)-carboxylic acid, 2-[3-(ethylsulfonyl)-1-oxopropyl]hydrazide]
Kb [1]: 2 µM
responders at 30 mg/kg [2, 4]: 60%
responders at 30 mg/kg [2, 5]: 20%

CCS(=O)(=O)CCC(=O)NNC(=O)N1Cc2ccccc2Oc2ccc(C)cc21 [Example 17, 8-methyldibenz[b,f][1,4]oxazepine-10(11H)-carboxylic acid, 2-[3-(ethylsulfonyl)-1-oxopropyl]hydrazide]
Kb [1]: 2.09 µM
responders at 30 mg/kg [2, 4]: 22.2%
responders at 30 mg/kg [2, 5]: 20%

CCS(=O)(=O)CCC(=O)NNC(=O)N1Cc2cccc(Cl)c2Oc2ccccc21 [Example 18, 4-chlorodibenz[b,f][1,4]oxazepine-10(11H)-carboxylic acid, 2-[3-(ethylsulfonyl)-1-oxopropyl]hydrazide]
Kb [1]: 2.69 µM
responders at 30 mg/kg [2, 4]: 40%
responders at 30 mg/kg [2, 5]: 40%

CCS(=O)(=O)CCC(=O)NNC(=O)N1Cc2ccccc2Oc2ccc(O)cc21 [Example 19, 8-hydroxydibenz[b,f][1,4]oxazepine-10(11H)-carboxylic acid, 2-[3-(ethylsulfonyl)-1-oxopropyl]hydrazide]
Kb [1]: 2.57 µM
responders at 30 mg/kg [2, 4]: 40%
responders at 30 mg/kg [2, 5]: 30%

CCS(=O)(=O)CCC(=O)NNC(=O)N1Cc2ccccc2Oc2ccc(C(F)(F)F)cc21 [Example 20, 8-(trifluoromethyl)dibenz[b,f][1,4]oxazepine-10(11H)-carboxylic acid, 2-[3-(ethylsulfonyl)-1-oxopropyl]hydrazide]
Kb [1]: 1.26 µM
potency in the Writhing Assay (in words) ([2]; 30 mg per kg s.c. or i.g.): most potent compound of the invention tested in this assay
responders at 30 mg/kg [2, 4]: 60%
responders at 30 mg/kg [2, 5]: 60%

CCS(=O)(=O)CCC(=O)NNC(=O)N1Cc2ccccc2Oc2ccccc21 [Example 21, Dibenz[b,f][1,4]oxazepine-10(11H)-carboxylic acid, 2-[3-(ethylsulfonyl)-1-oxopropyl]hydrazide]
Kb [1]: 1.05 µM
responders at 30 mg/kg [2, 4]: 50%
responders at 30 mg/kg [2, 5]: 10%

O=C(Cc1ccccc1)NNC(=O)N1Cc2ccccc2Oc2ccc(Cl)cc21 [SC-18637]
inhibition of stimulant actions of prostaglandins [3]: inhibit the stimulant actions of prostaglandins on isolated smooth muscle preparations
